Among the data in publication doi:10.1101/2024.12.13.628427v1 (biorxiv, 2024) are IC50 values, retold here.

For this assay, the target named is T1, FBXO21 (Homo sapiens, UniProt O94952).
T1 sequence (O94952 1-628): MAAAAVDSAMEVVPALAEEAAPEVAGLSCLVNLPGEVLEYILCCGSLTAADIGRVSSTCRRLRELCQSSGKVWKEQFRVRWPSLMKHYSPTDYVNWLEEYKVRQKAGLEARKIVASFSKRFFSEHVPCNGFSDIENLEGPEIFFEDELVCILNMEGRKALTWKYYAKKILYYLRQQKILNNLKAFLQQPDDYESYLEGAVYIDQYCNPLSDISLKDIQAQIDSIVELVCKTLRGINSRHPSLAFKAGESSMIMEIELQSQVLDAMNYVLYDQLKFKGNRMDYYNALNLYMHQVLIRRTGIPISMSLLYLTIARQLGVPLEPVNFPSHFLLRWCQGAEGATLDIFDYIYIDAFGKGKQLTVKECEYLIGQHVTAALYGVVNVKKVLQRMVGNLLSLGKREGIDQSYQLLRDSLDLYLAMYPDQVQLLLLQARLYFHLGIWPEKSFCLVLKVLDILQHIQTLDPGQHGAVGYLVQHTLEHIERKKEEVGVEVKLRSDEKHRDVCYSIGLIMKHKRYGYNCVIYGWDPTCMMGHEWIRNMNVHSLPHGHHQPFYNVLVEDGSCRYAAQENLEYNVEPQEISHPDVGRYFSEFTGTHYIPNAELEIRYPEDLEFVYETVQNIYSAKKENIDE
Description: in vitro ubiquitination of GFP-p85α, Western blot. Format: biochemical. (In general: A western blot detects proteins with antibodies after separation by electrophoresis.)

In general, IC50 refers to the point on the concentration scale where inhibition reaches its midpoint. In turn, `O=C(O)Cc1cc(-c2ccc(F)cc2)ccc1-c1ccc(F)cc1` [57-057] yielded an IC50 of 2.4 nM.
